Data taken from patent EP0359256A2, “The use of inositoltrisphosphate in the treatment of tissue damage” (PERSTORP AB, priority 1988, dated 1990).

Assays:
Format in all cases: in vivo
skin of the abdomen = experiment: Controlled burn damage in rats, albumin leakage measured with Evans Blue; settings: n=10, 10 mg/kg injection 15 minutes after the burn, then infusion of 0.2 mg/min for 2 hours
Protocol: A controlled burn damage is induced in rats as a heat probe is applied to the skin of the abdomen with a constant pressure. The probe has a surface temperature of […] and is allowed to deliver a specific amount of energy until the temperature is lowered to 37°C. 15 minutes after the induction of the burn an injection of saline (control) or D-myo-inositol-1.2.6-trisphosphate (IP₃) was performed. After this first injection (10 mg/kg IP₃) an infusion of 0.2 mg/min IP₃ followed for 2 hours. 90 minutes after the damage Evans Blue is injected to the animals. This compound binds to albumin, which leaks into the damaged tissue. The amount of albumin leakage is then easily determined by measuring the intensity of colour of Evans Blue in different parts of the tissue. After another 30 minutes the animals are killed and the tissue damage is determined. […] Thus IP₃ is an protective substance against tissue damage caused by burns.

mice = experiment: Toxicity after intraperitoneal injection of very high doses; settings: 160 mg/kg body weight by intraperitoneal injection
[1] = test system: shaved dorsal skin of rabbits; experiment: Local oedema formation in rabbit dorsal skin in response to mediators of increased microvascular permeability, Evans Blue; settings: 50 mg/kg directly after injection of the mediators
Protocol: Local oedema formation is measured in the shaved dorsal skin of rabbits in response to mediators of increased microvascular permeability, such as histamine, bradykinin and platelet activating factor (PAF). When a vasodilator such as calcitonin gene-related peptide (CGRP) is administered together with the mediators the blood flow is increased and this system is established for testing compounds that reduces oedema formation.
Prior to injection of the different mediators Evans Blue is injected into the anaesthetized animals. The distribution of Evans Blue is a measurement of the tissue damage and oedema formation. Directly after injection of the mediators either saline (control) or 50 mg/kg of D-myo-inositol-1.2.6-trisphos phate (IP₃) are performed.
The results are shown below as per cent inhibition of IP₃ compared to control.

rat hind-paw = experiment: Carrageenan-induced oedema of the rat hind-paw; settings: male rats, 1000 mg/kg injected 2 hours and 1 hour before carrageenan; four hours after induction of the damage
Protocol: Injection of carrageenan into the subplanar surface of the rat hind-paw induces a tissue damage that results in pronounced oedema. The degree of oedema can be reproducibly quantified by measuring paw circumference.
Two groups of five male rats were injected 2 hours and 1 hour before injection of carrageenan with 1000 mg/kg D-myo-inositol-1.2.6-trisphosphate (IP₃) or Krebs ringer solution (control) respectively.
Measurement of the paw diameter was made at hourly intervals.

hamster cheek pouch = experiment: Vascular permeability and bleeding induced by histamine in the hamster cheek pouch; settings: 80 min period
Protocol: Vascular permeability and bleeding induced by histamine in the hamster cheek pouch was determined in the presence of D-myo-inositol-1.2.6-trisphosphate (IP₃) compared to control. Male hamsters were fasted overnight and anaesthetised with sodium pentobarbitone. Infusion was performed through the jugular vein. Injection of histamine (2.7 mg/kg) was preceded by either saline (control) or IP₃ (5.0 mg/kg).

Structure (SMILES): O=P(O)(O)OC1[C@H](OP(=O)(O)O)[C@H](O)C(O)[C@H](O)[C@H]1OP(=O)(O)O (stereo partly drawn) [IP₃, D-myo-inositol-1.2.6-trisphosphate]
- burn damage compared to control (skin of the abdomen): significantly reduced
- toxic effects (mice): no toxic effects
- % inhibition with IP₃ compared to control ([1]; mediator Bradykinin): 64%
- % inhibition with IP₃ compared to control ([1]; mediator Histamine): 61%
- % inhibition with IP₃ compared to control ([1]; mediator PAF): 64%
- reduces the oedema as compared to control (rat hind-paw): 40%
- % inhibition (hamster cheek pouch; inhibition of petechiae versus saline control, histamine 2.7 mg/kg, IP₃ 5.0 mg/kg): 88%
- number of petechiae (hamster cheek pouch; male hamsters, histamine 2.7 mg/kg preceded by IP₃ 5.0 mg/kg, infusion through jugular vein): 1.0
